Measured values from patent US6989384B2, “Antipicornaviral compounds and compositions, their pharmaceutical uses, and materials for their synthesis” (Agouron Pharmaceuticals, Inc., priority 2000, dated 2006).
Read-outs that look alike come from different tables or passages of the source.

Legend:
HRV-2 = assay: Antirhinoviral H1-HeLa cell culture assay (cell protection, XTT), HRV-2; assay type: cell-based, human rhinovirus; settings: Rhinovirus A, HRV2, 48 h, HRV-2, H1-HeLa cells, two days
Procedure: (§1) In this cell protection assay, the ability of compounds to protect cells against HRV infection was measured by the XTT dye reduction method, which is described in Weislow et al., J. Natl. Cancer Inst. 1989, vol. 81, 577–586.
(§2) H1-HeLa cells were infected with HRV-14 at a multiplicity of infection (m.o.i.) of 0.13 (virus particles/cell) or mock-infected with medium only. Infected or mock-infected cells were resuspended at 8×10^5 cells per mL, and incubated with appropriate concentrations of the compounds to be tested. Two days later, XTT/PMS was added to test plates and the amount of formazan produced was quantified spectrophotometrically at 450/650 nm. The EC50 value was calculated as the concentration of compound that increased the percentage of formazan production in compound-treated, virus-infected cells to 50% of that produced by compound-free, mock-infected cells. The 50% cytotoxic dose (CC50) was calculated as the concentration of compound that decreased the percentage of formazan produced in compound-treated, mock-infected cells to 50% of that produced by compound-free, mock-infected cells.
(§3) All strains of human rhinovirus (HRV) for use in this assay were purchased from American Type Culture Collection (ATCC), except for HRV serotype-14 (produced from the infectious cDNA clone constructed by Dr. Robert Rueckert, Institute for Molecular Virology, University of Wisconsin, Madison, Wis.). HRV stocks were propagated and viral assays were performed in H1-HeLa cells (ATCC). Cells were grown in minimal essential medium with 10% fetal bovine serum, available from Life Technologies (Gaithersburg, Md.).
(§4) The compounds were tested against control compounds WIN 51711, WIN 52084, and WIN 54954 (obtained from Sterling-Winthrop Pharmaceuticals), Pirodavir (obtained from Janssen Pharmaceuticals), and Pleconaril (prepared according to the method described in Diana et al., J. Med. Chem 1995, vol. 38, 1355). Antiviral data obtained for the test compounds are shown in the Table, where all data are for HRV serotype-14 unless otherwise noted in parentheses.

[1] = molecular target: T1, rhinovirus 3C protease from HRV serotype-14 (Human rhinovirus 14, UniProt P03303); assay: Inhibition of rhinovirus 3C protease activity (FRET assay), HRV-14; assay type: biochemical; settings: read-out: Protease Inhibition kobs/I
T1 construct: Recombinant rhinovirus 3C proteases; made in house
Procedure: (§5) Stock solutions (50 mM, in DMSO) of various compounds were prepared; dilutions were in the same solvent. Recombinant rhinovirus 3C proteases (see Birch et al., “Purification of recombinant human rhinovirus 14 3C protease expressed in Escherichia coli,” Protein Expr. Pur. 1995, 6(5), 609–618) from serotypes 14, 16, and 2 were prepared by the following standard chromatographic procedures: (1) ion exchange using Q Sepharose Fast Flow from Pharmacia; (2) affinity chromatography using Affi-Gel Blue from Biorad; and (3) sizing using Sephadex G-100 from Pharmacia. Each assay sample contained 2% DMSO, 50 mM tris pH 7.6, 1 mM EDTA, a test compound at the indicated concentration, approximately 1 μM substrate, and 50–100 nM protease. The kobs/I values were obtained from reactions initiated by addition of enzyme rather than substrate. RVP activity was measured in the fluorescence resonance energy transfer assay. The substrate was (N-terminal) DABCYL-(Gly-Arg-Ala-Val-Phe-Gln-Gly-Pro-Val-Gly)-EDANS. In the uncleaved peptide, the EDANS fluorescence was quenched by the proximal DABCYL group. When the peptide was cleaved, the quenching was relieved, and activity was measured as an increase in fluorescence signal. In the Table, unless otherwise indicated, all data are for rhinovirus 3C protease from HRV serotype-14 (produced from the infectious cDNA clone constructed by Dr. Robert Rueckert, Institute for Molecular Virology, University of Wisconsin, Madison, Wis.). The data in the column designated kobs/[I] were measured from progress curves in enzyme start experiments.

[2] = molecular target: T2, rhinovirus 3C protease (HRV-2) (Human rhinovirus 2, UniProt P04936); assay: Inhibition of rhinovirus 3C protease activity (FRET assay), HRV-2; assay type: biochemical; settings: read-out: Protease Inhibition kobs/I
T2 construct: Recombinant rhinovirus 3C proteases; made in house
Procedure: as §5

HRV-1A = assay: Antirhinoviral H1-HeLa cell culture assay (cell protection, XTT), HRV-1A; assay type: cell-based, human rhinovirus; settings: Rhinovirus A, HRV1A, 48 h, H1-HeLa cells, two days
Procedure: as §1, §2, §3, §4

HRV-14 = assay: Antirhinoviral H1-HeLa cell culture assay (cell protection, XTT), HRV-14; assay type: cell-based, human rhinovirus; settings: read-out: Cell Protection EC50
Procedure: as §1, §2, §3, §4

[3] = Cytotoxicity in mock-infected H1-HeLa cells (XTT); assay type: cell-based; settings: human, two days, read-out: Toxicity CC50
Procedure: as §1, §2, §3

HRV-10 = assay: Antirhinoviral H1-HeLa cell culture assay (cell protection, XTT), HRV-10; assay type: cell-based; settings: Human rhinovirus sp., HRV10, 48 h, HRV-10, H1-HeLa cells, two days
Procedure: as §1, §2, §3, §4

H1-HeLa cells = assay: Cytotoxicity in mock-infected H1-HeLa cells (XTT); assay type: cell-based; settings: two days, read-out: Toxicity CC50
Procedure: as §1, §2, §3

[4] = Rhinovirus B, HRV14, H1-HeLa, 48 h
[5] = HRV-14 3C protease, progress curves, enzyme start
[6] = Rhinovirus B, HRV14, 48 h, HRV-14, H1-HeLa cells, XTT, two days
[7] = HRV-14, H1-HeLa cells, XTT, two days

T2 sequence (P04936 1508-1690): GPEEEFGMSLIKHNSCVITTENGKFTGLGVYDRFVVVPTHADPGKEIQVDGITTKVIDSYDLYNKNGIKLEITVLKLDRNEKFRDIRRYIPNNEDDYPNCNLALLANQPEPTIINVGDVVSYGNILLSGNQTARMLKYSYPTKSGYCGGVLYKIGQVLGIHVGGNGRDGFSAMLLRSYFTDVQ
T1 sequence (P03303 1538-1719): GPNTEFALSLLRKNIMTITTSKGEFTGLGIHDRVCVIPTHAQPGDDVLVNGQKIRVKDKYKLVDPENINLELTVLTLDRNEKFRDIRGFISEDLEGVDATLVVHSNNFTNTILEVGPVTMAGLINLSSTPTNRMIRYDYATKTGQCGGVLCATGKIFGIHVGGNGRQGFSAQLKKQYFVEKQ

Row | SMILES | EC50 (HRV-2) | kinact/KI [1] | kinact/KI [2] | EC50 (HRV-1A) | EC50 (HRV-14; [4]) | CC50 at 2 days [3] | EC50 (HRV-10) | kinact/KI [1, 5] | kinact/KI ([2]; HRV-2 3C protease, progress curves, enzyme start) | EC50 (HRV-14; [6]) | EC50 (HRV-14; [7]) | CC50 (H1-HeLa cells)
1 | CCOC(=O)/C=C/[C@H](C[C@@H]1CCNC1=O)NC(=O)c1ccc2ccc(Br)cc2c1 [Compound 53, 4S-[(7-Bromo-naphthalene-2-carbonyl)-amino]-5-(2-oxo-pyrrolidin-3S-yl)-pent-2-enoic acid ethyl ester] | 422 nM | 31400 M⁻¹ s⁻¹ | 385 M⁻¹ s⁻¹ | 4180 nM | 184 nM | 56200 nM | 546 nM |  |  |  |  | 
2 | CCOC(=O)/C=C/[C@H](C[C@@H]1CCNC1=O)NC(=O)/C=C/c1cc2c(cc1Br)OCO2 [Compound 49, 4S-[3-(6-Bromo-benzo[1,3]dioxol-5-yl)-acryloylamino]-5-(2-oxo-pyrrolidin-3S-yl)-pent-2-enoic acid ethyl ester] |  | 14400 M⁻¹ s⁻¹ |  | 2510 nM | 490 nM | > 100000 nM | 316 nM |  |  |  |  | 
3 | CCOC(=O)/C=C/[C@H](C[C@@H]1CCNC1=O)NC(=O)c1ccc2ccc(O)cc2c1 [Compound 54, 4S-[(7-Hydroxy-naphthalene-2-carbonyl)-amino]-5-(2-oxo-pyrrolidin-3S-yl)-pent-2-enoic acid ethyl ester] |  |  |  |  |  |  |  | 220 M⁻¹ s⁻¹ | 35 M⁻¹ s⁻¹ |  |  | 
4 | CCOC(=O)/C=C/[C@H](C[C@@H]1CCNC1=O)NC(=O)C1=Cc2cc(Br)ccc2OC1 [Compound 52, 4S-[(6-Bromo-2H-chromene-3-carbonyl)-amino]-5-(2-oxo-pyrrolidin-3S-yl)-pent-2-enoic acid ethyl ester] |  | 25000 M⁻¹ s⁻¹ | 372 M⁻¹ s⁻¹ | 5060 nM | 175 nM | 65000 nM | 546 nM |  |  |  |  | 
5 | CCOC(=O)/C=C/[C@H](CCC(N)=O)NC(=O)c1ccc2ccccc2c1 [Compound 25, 6-carbamoyl-4S-[(naphthalene-2-carbonyl)-amino]-hex-2-enoic acid ethyl ester] |  |  |  | 22000 nM |  | > 100000 nM | 35000 nM | 150 M⁻¹ s⁻¹ |  | 600 nM |  | 
6 | Cc1cc(CCCCCCCOc2ccc(C3=N[C@@H](C)CO3)cc2)on1 [WIN 52084, reference compound] |  |  |  |  |  |  |  |  |  |  | 70 nM | > 10000 nM
7 | CCOC(=O)/C=C/[C@H](C[C@@H]1CCNC1=O)NC(=O)c1ccc2ccccc2c1 [Compound 1, 4S-[(naphthalene-2-carbonyl)-amino]-5-(2-oxo-pyrrolidin-3S-yl)-pent-2-enoic acid ethyl ester] | 1350 nM | 1090 M⁻¹ s⁻¹ | 110 M⁻¹ s⁻¹ |  | 150 nM | > 100000 nM |  |  |  |  |  | 
8 | CCOC(=O)/C=C/[C@H](CCC(N)=O)NC(=O)c1cc2ccccc2s1 [Compound 26, 4S-[(benzo[b]thiophene-2-carbonyl)-amino]-6-carbamoyl-hex-2-enoic acid ethyl ester] |  |  |  | 59000 nM |  | > 100000 nM | 12400 nM | 95 M⁻¹ s⁻¹ |  | 1500 nM |  | 
9 | Cc1cc(CCCCCOc2c(Cl)cc(C3=NCCO3)cc2Cl)on1 [WIN 54954, reference compound] |  |  |  |  |  |  |  |  |  |  | 2130 nM | > 63000 nM
